Assay results: ChEMBL document CHEMBL3804765, “One-pot synthesis and sigma receptor binding studies of novel spirocyclic-2,6-diketopiperazine derivatives” (Bioorg Med Chem Lett, 2016)

Tests used:
[1] = target: Sigma non-opioid intracellular receptor 1 (Cavia porcellus, UniProt Q60492); assay: Displacement of [3H](+)-pentazocine from Sigma1 receptor in Dunkin Hartley guinea pig brain membrane after 120 mins by liquid scintillation counting analysis
[2] = Displacement of [3H]-DTG from Sigma2 receptor in Sprague-Dawley rat liver membrane after 150 mins by liquid scintillation counting analysis in presence of sigma1 blocker (+)-pentazocine; assay type: cell membranes
[3] = Displacement of [3H]-DTG from Sigma2 receptor in rat brain by liquid scintillation counting analysis in presence of sigma1 blocker (+)-pentazocine; assay type: tissue-based
[4] = Displacement of [3H]-DTG from Sigma2 receptor in Sprague-Dawley rat liver membrane after 150 mins by liquid scintillation counting analysis in presence of sigma1 blocker AC915; assay type: cell membranes

Sequence of Sigma non-opioid intracellular receptor 1 (Q60492 whole entry): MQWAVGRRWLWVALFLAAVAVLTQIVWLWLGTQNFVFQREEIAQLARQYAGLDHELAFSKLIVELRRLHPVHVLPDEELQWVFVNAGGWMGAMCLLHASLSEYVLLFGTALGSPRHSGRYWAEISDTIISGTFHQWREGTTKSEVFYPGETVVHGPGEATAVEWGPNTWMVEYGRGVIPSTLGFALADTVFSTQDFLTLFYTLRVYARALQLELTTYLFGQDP

Row | SMILES | Ki [1] [nM] | Ki [2] [nM] | Ki [3] [nM] | Ki [4] [nM]
1 | COc1ccc(C(=O)N2CC(=O)N(C3CCCCC3)C(=O)C23CCCC3)cc1 | 429 | 98 | – | –
2 | O=C1CN(C(=O)c2ccccc2)C2(CCN(Cc3ccccc3)CC2)C(=O)N1C1CCCCC1 | 7.2 | 248 | – | –
3 | Cc1ccc(C(=O)N2CC(=O)N(C3CCCCC3)C(=O)C23CCN(Cc2ccccc2)CC3)cc1 | 11.1 | 134 | – | –
4 | Cc1ccc(C(=O)N2CC(=O)N(C3CCCCC3)C(=O)C23CCCC3)cc1 | 189 | 134 | – | –
5 | CC(C)(C)C1CCC2(CC1)C(=O)N(C1CCCCC1)C(=O)CN2C(=O)c1ccccc1 (stereo unspecified) | 7900 | > 10000 | – | –
6 | COc1ccc(C(=O)N2CC(=O)N(C3CCCCC3)C(=O)C23CCN(Cc2ccccc2)CC3)cc1 | 5.9 | 563 | – | –
7 | Cc1ccc(C(=O)N2CC(=O)N(C3CCCCC3)C(=O)C23CCCCC3)cc1 | 399 | 2190 | – | –
8 | O=C1CN(C(=O)c2ccccc2)C2(CCCC2)C(=O)N1C1CCCCC1 | 79.8 | 118 | – | –
9 | c1ccc(CN2CCC3(CC2)N=Nc2ccccc2N3)cc1 | – | – | 4220 | –
10 | COc1ccc(C(=O)N2CC(=O)N(C3CCCCC3)C(=O)C23CCC(C(C)(C)C)CC3)cc1 (stereo unspecified) | 9360 | > 10000 | – | –
11 | COc1ccc(C(=O)N2CC(=O)N(C3CCCCC3)C(=O)C23CCCCC3)cc1 | 1370 | 5380 | – | –
12 | COc1ccc(C(=O)N2CC(=O)N(C3CCCCC3)C(=O)C23CCCCC3)c(OC)c1 | 968 | 3170 | – | –
13 | CC(C)=CCN1CC[C@]2(C)c3cc(O)ccc3C[C@H]1[C@H]2C [(+)-PENTAZOCINE] | – | – | – | 1820
14 | Cc1ccccc1NC(=N)Nc1ccccc1C [DITOLYLGUANIDINE] | – | 59.1 | – | –
15 | O=C(CCCN1CCC(O)(c2ccc(Cl)cc2)CC1)c1ccc(F)cc1 [HALOPERIDOL] | – | 54.5 | – | –
